Measured values taken from patent US20260184713A1, “KINASE INHIBITORS” (The United States of America, as represented by the …, priority 2022, published 2026).

Key:
[1] = target: CK1α1 (Homo sapiens, UniProt P48729); assay: HOTSPOT radiometric kinase assay
[2] = target: FLT1/VEGFR1 (Homo sapiens, UniProt P17948); assay: HOTSPOT radiometric kinase assay
[3] = target: PKCα (Homo sapiens, UniProt P17252); assay: HOTSPOT radiometric kinase assay
[4] = target: T1, STK39/STLK3 (Homo sapiens, UniProt Q9UEW8); assay: HOTSPOT radiometric kinase assay; format: biochemical; conditions: 50 nM, 10 μM ATP
T1 construct: purchased Reaction Biology Corp

[5] = target: GSK3β (Homo sapiens, UniProt P49841); assay: HOTSPOT radiometric kinase assay
Sequence of GSK3β (P49841 whole entry): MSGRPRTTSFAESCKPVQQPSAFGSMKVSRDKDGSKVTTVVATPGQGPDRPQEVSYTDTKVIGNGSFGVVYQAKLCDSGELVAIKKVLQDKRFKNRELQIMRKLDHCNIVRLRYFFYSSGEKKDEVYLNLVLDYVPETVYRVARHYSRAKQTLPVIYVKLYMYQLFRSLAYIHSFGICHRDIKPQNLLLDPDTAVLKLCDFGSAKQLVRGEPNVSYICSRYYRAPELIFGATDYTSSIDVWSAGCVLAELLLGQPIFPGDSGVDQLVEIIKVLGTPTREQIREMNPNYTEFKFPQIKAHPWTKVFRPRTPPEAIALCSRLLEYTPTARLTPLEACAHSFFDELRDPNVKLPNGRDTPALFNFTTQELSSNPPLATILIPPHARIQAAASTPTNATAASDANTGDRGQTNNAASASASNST

[6] = system: panel of 370 human protein kinases; assay: pan human kinome profiling (370 kinases); conditions: 50 nM; panel of 370 kinases
[7] = target: MAP2K1 (MEK1) (Homo sapiens, UniProt Q02750); assay: HOTSPOT radiometric kinase assay
Sequence of MAP2K1 (MEK1) (Q02750 whole entry): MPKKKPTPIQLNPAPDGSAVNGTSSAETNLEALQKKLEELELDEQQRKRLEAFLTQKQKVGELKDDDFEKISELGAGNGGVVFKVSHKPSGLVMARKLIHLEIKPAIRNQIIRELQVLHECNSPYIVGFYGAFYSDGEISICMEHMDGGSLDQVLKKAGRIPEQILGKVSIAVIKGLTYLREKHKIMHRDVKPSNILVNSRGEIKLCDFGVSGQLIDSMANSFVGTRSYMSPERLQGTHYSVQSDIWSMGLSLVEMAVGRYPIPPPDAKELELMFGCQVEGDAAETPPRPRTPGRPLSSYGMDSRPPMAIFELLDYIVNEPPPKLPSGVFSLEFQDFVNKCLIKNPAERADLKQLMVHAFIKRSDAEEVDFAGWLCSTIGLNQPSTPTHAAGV

[8] = target: wide-type PKA (wt-PKA) (Homo sapiens, UniProt P17612); assay: modified sandwich ELISA, wild-type PKA; format: biochemical; conditions: read-out: IC50 against wt-PKA
[9] = target: T2, LATS1 (Homo sapiens, UniProt O95835); assay: HOTSPOT radiometric kinase assay; format: biochemical; conditions: 50 nM, 10 μM ATP
T2 construct: purchased Reaction Biology Corp
T2 sequence (O95835 1-1130): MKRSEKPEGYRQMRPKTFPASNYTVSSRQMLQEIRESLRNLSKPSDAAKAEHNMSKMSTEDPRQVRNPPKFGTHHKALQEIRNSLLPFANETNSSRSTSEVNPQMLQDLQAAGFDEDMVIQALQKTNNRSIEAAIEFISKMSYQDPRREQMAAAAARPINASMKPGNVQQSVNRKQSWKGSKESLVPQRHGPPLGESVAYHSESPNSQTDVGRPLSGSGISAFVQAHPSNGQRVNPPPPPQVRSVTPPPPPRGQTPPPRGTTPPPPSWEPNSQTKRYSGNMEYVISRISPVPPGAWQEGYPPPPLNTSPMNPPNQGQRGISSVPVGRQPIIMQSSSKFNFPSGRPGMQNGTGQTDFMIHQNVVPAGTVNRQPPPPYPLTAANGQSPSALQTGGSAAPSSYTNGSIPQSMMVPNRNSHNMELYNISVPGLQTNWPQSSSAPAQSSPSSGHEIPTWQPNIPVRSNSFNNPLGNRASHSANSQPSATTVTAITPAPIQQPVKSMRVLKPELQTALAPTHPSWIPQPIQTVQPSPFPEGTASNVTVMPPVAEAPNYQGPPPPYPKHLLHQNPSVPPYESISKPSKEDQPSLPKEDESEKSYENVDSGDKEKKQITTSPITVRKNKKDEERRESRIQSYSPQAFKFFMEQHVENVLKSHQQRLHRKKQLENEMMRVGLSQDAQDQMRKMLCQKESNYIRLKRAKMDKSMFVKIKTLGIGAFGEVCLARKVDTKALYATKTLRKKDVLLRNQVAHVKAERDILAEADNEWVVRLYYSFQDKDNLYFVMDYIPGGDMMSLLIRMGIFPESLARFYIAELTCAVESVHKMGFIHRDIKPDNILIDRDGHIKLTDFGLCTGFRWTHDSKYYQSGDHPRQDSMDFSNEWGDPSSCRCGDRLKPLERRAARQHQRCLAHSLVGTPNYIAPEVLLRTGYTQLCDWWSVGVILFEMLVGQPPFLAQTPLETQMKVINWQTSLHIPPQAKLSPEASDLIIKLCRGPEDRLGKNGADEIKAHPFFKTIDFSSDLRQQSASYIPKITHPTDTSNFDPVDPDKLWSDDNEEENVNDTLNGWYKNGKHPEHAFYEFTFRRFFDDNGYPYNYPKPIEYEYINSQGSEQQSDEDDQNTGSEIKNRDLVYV

[10] = target: T3, CLK1 (Homo sapiens, UniProt P49759); assay: HOTSPOT radiometric kinase assay; format: biochemical; conditions: 50 nM, 10 μM ATP
T3 construct: purchased Reaction Biology Corp

[11] = target: PKAα (Homo sapiens, UniProt P17612); assay: HOTSPOT radiometric kinase assay
Description: The differential was calculated as follows: IC50 (kinase)/IC50 (PKG1a).

[12] = target: T4, PKCθ (Homo sapiens, UniProt Q04759); assay: HOTSPOT radiometric kinase assay; format: biochemical; conditions: 50 nM, 10 μM ATP
T4 construct: purchased Reaction Biology Corp
T4 sequence (Q04759 whole entry): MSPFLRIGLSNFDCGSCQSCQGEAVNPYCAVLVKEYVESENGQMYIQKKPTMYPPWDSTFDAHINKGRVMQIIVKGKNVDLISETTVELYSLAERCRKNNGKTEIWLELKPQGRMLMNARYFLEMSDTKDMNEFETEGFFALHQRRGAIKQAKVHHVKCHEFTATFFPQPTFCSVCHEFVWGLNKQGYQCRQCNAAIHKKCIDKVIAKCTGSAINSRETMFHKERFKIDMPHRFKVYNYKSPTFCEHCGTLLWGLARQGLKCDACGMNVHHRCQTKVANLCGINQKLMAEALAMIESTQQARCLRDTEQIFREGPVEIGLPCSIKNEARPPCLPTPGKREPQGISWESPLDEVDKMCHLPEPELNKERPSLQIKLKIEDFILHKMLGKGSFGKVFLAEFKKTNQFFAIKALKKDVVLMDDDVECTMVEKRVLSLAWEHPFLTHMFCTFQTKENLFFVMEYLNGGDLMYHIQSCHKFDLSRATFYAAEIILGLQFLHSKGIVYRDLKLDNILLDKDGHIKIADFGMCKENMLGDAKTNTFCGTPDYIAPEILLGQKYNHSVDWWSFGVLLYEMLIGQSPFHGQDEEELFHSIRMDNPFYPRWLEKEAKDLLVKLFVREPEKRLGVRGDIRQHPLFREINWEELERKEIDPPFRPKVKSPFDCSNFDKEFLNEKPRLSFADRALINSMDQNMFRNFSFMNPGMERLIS

[13] = target: ERBB2/HER2 (Homo sapiens, UniProt P04626); assay: HOTSPOT radiometric kinase assay
Sequence of ERBB2/HER2 (P04626 23-1255): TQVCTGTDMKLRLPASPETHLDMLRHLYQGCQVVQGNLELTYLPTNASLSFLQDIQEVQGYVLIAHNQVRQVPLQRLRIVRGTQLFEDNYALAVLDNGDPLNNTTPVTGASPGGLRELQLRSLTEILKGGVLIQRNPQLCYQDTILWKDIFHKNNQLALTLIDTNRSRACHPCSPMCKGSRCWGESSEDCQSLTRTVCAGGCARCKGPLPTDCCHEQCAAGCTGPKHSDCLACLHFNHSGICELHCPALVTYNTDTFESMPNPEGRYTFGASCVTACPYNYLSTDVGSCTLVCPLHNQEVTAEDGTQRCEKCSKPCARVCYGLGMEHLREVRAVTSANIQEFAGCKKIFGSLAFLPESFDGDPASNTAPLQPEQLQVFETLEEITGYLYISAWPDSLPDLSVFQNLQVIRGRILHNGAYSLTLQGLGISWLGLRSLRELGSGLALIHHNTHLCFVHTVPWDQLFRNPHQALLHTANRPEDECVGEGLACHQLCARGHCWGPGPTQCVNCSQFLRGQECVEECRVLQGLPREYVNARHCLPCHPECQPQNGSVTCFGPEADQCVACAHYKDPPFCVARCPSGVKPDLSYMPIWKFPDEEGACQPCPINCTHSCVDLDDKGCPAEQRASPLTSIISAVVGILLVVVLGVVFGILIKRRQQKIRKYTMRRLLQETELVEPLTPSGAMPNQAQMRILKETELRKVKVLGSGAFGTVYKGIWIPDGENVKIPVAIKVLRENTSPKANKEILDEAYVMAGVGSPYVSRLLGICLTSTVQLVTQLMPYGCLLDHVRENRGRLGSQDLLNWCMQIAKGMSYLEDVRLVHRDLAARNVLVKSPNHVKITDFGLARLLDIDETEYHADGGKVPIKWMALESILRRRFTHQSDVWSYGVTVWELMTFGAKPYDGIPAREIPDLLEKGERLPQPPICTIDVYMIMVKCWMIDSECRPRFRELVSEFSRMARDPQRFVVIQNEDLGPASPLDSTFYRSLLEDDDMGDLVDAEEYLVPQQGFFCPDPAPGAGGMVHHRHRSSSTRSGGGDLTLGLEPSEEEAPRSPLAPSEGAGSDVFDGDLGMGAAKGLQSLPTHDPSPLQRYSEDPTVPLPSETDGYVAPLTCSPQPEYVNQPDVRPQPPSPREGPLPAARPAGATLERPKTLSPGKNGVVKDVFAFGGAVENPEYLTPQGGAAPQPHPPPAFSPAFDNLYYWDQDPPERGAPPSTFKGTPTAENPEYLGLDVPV

[14] = target: T5, DYRK2 (Homo sapiens, UniProt Q92630); assay: HOTSPOT radiometric kinase assay; format: biochemical; conditions: 50 nM, 10 μM ATP
T5 construct: purchased Reaction Biology Corp
T5 sequence (Q92630 1-601): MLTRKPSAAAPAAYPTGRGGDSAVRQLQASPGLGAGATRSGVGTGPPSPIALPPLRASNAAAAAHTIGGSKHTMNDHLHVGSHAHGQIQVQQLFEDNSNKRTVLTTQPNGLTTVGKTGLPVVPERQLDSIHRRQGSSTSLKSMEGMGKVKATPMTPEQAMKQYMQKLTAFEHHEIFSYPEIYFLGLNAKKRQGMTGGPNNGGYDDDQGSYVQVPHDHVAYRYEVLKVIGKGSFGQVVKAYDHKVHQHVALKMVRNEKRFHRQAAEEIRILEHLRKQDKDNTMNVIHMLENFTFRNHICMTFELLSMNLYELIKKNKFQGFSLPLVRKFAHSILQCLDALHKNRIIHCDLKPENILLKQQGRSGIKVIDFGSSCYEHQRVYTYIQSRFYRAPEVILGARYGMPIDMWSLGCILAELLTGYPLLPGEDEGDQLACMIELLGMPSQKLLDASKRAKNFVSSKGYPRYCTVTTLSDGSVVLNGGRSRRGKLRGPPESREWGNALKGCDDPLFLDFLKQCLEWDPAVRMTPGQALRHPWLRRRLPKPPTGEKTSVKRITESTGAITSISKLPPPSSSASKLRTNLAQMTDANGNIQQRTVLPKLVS

[15] = target: T6, PKG1β (Homo sapiens, UniProt Q13976); assay: HOTSPOT radiometric kinase assay; format: biochemical; conditions: 50 nM, 10 μM ATP
T6 construct: purchased Reaction Biology Corp

[16] = target: ERK1 (Homo sapiens, UniProt P27361); assay: HOTSPOT radiometric kinase assay
[17] = target: CAMK1δ (Homo sapiens, UniProt Q8IU85); assay: HOTSPOT radiometric kinase assay
Sequence of CAMK1δ (Q8IU85 whole entry): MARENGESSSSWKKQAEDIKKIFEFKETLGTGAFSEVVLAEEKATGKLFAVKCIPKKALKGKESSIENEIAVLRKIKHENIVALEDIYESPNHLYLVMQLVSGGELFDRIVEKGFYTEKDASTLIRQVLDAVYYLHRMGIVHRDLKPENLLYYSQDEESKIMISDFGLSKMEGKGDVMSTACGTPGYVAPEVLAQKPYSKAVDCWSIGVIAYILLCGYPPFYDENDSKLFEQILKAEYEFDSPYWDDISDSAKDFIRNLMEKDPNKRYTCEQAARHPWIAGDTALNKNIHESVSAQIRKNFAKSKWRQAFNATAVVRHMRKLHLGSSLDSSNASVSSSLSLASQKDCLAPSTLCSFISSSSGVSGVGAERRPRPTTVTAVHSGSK

[18] = target: T7, DYRK1A (Homo sapiens, UniProt Q13627); assay: HOTSPOT radiometric kinase assay; format: biochemical; conditions: 50 nM, 10 μM ATP
T7 construct: purchased Reaction Biology Corp

[19] = target: PKG1α (Homo sapiens, UniProt Q13976); assay: HOTSPOT radiometric kinase assay; format: biochemical; conditions: 50 nM, 10 μM ATP
Sequence of PKG1α (Q13976 whole entry): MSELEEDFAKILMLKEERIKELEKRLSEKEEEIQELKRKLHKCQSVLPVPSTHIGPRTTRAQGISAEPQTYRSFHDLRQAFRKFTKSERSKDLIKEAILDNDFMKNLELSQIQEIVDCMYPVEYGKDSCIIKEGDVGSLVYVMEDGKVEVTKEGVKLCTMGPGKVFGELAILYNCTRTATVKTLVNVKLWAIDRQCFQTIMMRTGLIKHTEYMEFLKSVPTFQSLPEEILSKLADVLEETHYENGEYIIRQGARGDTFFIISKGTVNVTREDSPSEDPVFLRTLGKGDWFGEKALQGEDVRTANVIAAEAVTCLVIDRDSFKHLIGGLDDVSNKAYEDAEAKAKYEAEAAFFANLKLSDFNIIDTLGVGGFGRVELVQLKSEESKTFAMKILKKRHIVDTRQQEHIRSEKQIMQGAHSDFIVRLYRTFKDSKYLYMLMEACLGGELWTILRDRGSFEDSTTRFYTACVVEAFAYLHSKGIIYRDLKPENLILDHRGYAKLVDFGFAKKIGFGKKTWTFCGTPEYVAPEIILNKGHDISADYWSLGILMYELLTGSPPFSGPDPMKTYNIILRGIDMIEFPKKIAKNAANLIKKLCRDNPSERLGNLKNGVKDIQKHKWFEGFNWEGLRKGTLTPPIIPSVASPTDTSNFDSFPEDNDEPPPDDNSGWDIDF

[20] = target: AKT1 (Homo sapiens, UniProt P31749); assay: HOTSPOT radiometric kinase assay
Sequence of AKT1 (P31749 whole entry): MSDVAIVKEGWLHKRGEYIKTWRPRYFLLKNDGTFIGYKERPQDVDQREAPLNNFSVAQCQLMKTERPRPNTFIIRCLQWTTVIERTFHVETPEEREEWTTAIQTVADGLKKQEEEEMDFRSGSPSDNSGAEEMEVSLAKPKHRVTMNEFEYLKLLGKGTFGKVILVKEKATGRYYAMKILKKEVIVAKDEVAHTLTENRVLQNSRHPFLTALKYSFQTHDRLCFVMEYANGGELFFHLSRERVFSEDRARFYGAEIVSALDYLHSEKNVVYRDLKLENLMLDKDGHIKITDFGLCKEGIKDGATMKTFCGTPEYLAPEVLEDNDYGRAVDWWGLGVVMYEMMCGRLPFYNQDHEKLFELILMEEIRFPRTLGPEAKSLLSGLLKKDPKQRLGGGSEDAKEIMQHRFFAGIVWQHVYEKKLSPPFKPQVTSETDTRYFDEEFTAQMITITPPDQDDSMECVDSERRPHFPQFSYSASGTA

[21] = target: RIα2:JPKAcα2 chimeric kinase holoenzyme (Homo sapiens, UniProt P17612); assay: JPKAcα chimeric kinase holoenzyme ELISA dose response
Description: Compounds were tested to determine an IC50 value for inhibitory activity against RIα2:JPKAcα2 chimeric kinase holoenzyme. A 3× dose-response curve was set up over a final compound concentration range of 0-10 μM containing 1 μM cAMP, 50 μM ATP, and 0.4% DMSO in 100 mM Tris-HCl pH 7.5 (all final concentrations). A no cAMP/ATP control was also included for background normalization.
The % normalized activity measures were then fit to the following equation using a nonlinear regression least-squares fit with a variable slope (GraphPad Prism Software, San Diego, CA) an IC50 value was calculated using the following formula.

[22] = target: T8, DYRK4 (Homo sapiens, UniProt Q9NR20); assay: HOTSPOT radiometric kinase assay; format: biochemical; conditions: 10 μM ATP
T8 construct: purchased Reaction Biology Corp

[23] = target: T9, PKADJ (Homo sapiens, UniProt P17612); assay: modified sandwich ELISA, PKADJ holoenzyme; format: biochemical
T9 construct: gene fusion between the first exon of the gene encoding the Heat Shock Protein 40 (HSP40) family member DNAJB1 and the second exon; the other entry of the earlier key: DNAJB1 (P25685, DnaJ homolog subfamily B member 1)
Description: The reaction and readout components of this assay were than optimized including optimal reactant concentrations for the kinase reaction suitable to identify both inhibitors and activators of PKAJ.
The PKADJ holoenzyme was treated with the test compounds in the reaction step where the holoenzyme was dissociated to release the activated catalytic unit (PKADJc).

## Cn1cnc(Br)c1C1=CN(c2ncnc3nc[nH]c23)CCS1 [Compound 1a, Aplithianine A1]
[1]
  IC50: 0.8 to 6.6 µM
[2]
  IC50: 18 to 65 µM
[3]
  IC50: 0.8 to 6.6 µM
[4]
  inhibition at 0.05 µM: > 50%
[5]
  IC50: 0.043 to 0.189 µM
[6]
  number of kinases more potent targets compared to PKA: 29
[7]
  IC50: 18 to 65 µM
[8]
  IC50: 1.22 µM
[9]
  inhibition at 0.05 µM: > 50%
[10]
  inhibition at 0.05 µM: > 50%
[11]
  IC50: 0.043 to 0.189 µM
[11]; 50 nM, 10 μM ATP
  PKAα % inhibition: 78%
[12]
  inhibition at 0.05 µM: > 50%
[13]
  IC50: 18 to 65 µM
[14]
  inhibition at 0.05 µM: > 50%
[15]
  inhibition at 0.05 µM: > 50%
[16]
  IC50: 0.8 to 6.6 µM
[17]
  IC50: 18 to 65 µM
[18]
  inhibition at 0.05 µM: > 50%
[19]
  inhibition at 0.05 µM: > 50%
[20]
  IC50: 0.043 to 0.189 µM

## O=C(NCCO)C1=CN(c2ncnc3[nH]cnc23)CCS1 [Compound 183A050D, N-(2-hydroxyethyl)-4-(7H-purin-6-yl)-3,4-dihydro-2H-1,4-thiazine-6-carboxamide]
[21]
  IC50: > 10 µM

## NCCNC(=O)C1CN(c2ncnc3[nH]cnc23)CCS1 (stereo not drawn) [Compound 183A051C, N-(2-aminoethyl)-4-(7H-purin-6-yl)thiomorpholine-2-carboxamide]
[21]
  IC50: > 10 µM

## COCCNC(=O)C1=CN(c2ncnc3[nH]cnc23)CCS1 [Compound 183A050C, N-(2-methoxyethyl)-4-(7H-purin-6-yl)-3,4-dihydro-2H-1,4-thiazine-6-carboxamide]
[21]
  IC50: > 10 µM

## CC(=O)NCCNC(=O)C1=CN(c2ncnc3[nH]cnc23)CCS1 [Compound 183A050B, N-(2-acetamidoethyl)-4-(7H-purin-6-yl)-3,4-dihydro-2H-1,4-thiazine-6-carboxamide]
[21]
  IC50: > 10 µM

## CNCCNC(=O)C1=CN(c2ncnc3nc[nH]c23)CCS1 [Compound 183A050E, N-(2-(methylamino)ethyl)-4-(7H-purin-6-yl)-3,4-dihydro-2H-1,4-thiazine-6-carboxamide]
[21]
  IC50: 1.01 to 10 µM

## O=C(NCCNC(=O)c1ccccc1)C1=CN(c2ncnc3nc[nH]c23)CCS1 [Compound 183A049F, N-(2-benzamidoethyl)-4-(7H-purin-6-yl)-3,4-dihydro-2H-1,4-thiazine-6-carboxamide]
[21]
  IC50: > 10 µM

## O=C1Nc2ccc(I)cc2/C1=C/c1cc(Br)c(O)c(Br)c1 [GW5074, reference compound]
[22]
  IC50: 3.66 µM

## Cn1cncc1C1=CN(c2ncnc3[nH]c(=O)[nH]c23)CCS1 [Compound 2, Aplithianine B]
[8]
  IC50: 45 µM
[23]; compared with compound 1
  fold less potent than 1 against PKADJ: more than 60 fold
[23]; modified sandwich ELISA, read-out: IC50 against PKADJ
  IC50: 69 µM

## NCCNC(=O)C1=CN(c2ncnc3[nH]cnc23)CCS1 [Compound 183A049E, N-(2-aminoethyl)-4-(7H-purin-6-yl)-3,4-dihydro-2H-1,4-thiazine-6-carboxamide]
[21]
  IC50: 0.1 to 1 µM

## O=C(NCCNC(=O)c1ccccn1)C1=CN(c2ncnc3nc[nH]c23)CCS1 [Compound 183A049C, N-(2-(picolinamido)ethyl)-4-(7H-purin-6-yl)-3,4-dihydro-2H-1,4-thiazine-6-carboxamide]
[21]
  IC50: > 10 µM
